pIC50: −log10 of the molar value.

The target of one test is IDH1 R132H (Homo sapiens, UniProt O75874, R132H). Briefly: IDH1 R132H enzymatic assay (NADPH depletion coupled to diaphorase/resazurin). The test is classed as biochemical. The note with it: enzymatic inhibition, IDH1 R132H. (In general: Resazurin is reduced to fluorescent resorufin, in cell work by metabolically active cells.)
Another test has as its target IDH1 R132C (Homo sapiens, UniProt O75874, R132C). Briefly: IDH1 R132C enzymatic assay (NADPH depletion coupled to diaphorase/resazurin). The test is classed as biochemical. The note with it: enzymatic inhibition, IDH1 R132C. In short, it runs like this: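 NADPH depletion, read via diaphorase/resazurin coupling, after adding substrate at 0.6 mM α-KG and 0.012 mM NADPH. Beforehand, 0.00032 mg/mL enzyme sat with compound 30 min at room temperature in pH 6.5 potassium phosphate buffer with MgCl2, glycerol and BSA.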

IDH1 R132H, sequence (O75874 whole entry R132H): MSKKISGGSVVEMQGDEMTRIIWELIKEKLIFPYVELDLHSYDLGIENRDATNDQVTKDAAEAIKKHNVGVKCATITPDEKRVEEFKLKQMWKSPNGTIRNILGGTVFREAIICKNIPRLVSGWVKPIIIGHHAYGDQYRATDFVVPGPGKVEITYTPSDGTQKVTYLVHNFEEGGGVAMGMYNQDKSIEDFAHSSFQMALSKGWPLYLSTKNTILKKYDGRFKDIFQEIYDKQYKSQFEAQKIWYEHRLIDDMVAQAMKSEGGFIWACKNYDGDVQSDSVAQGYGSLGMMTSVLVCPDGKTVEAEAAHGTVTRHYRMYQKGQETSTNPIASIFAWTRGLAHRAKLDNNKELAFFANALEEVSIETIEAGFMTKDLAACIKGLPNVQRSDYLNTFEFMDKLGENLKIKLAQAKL
IDH1 R132C, sequence (O75874 whole entry R132C): as the sequence (O75874 whole entry R132H) above, with H132C counted along it

Regarding `CCc1cccc(CC)c1-n1c(C=C(C)C)c(C(=O)N2CCNC(=O)C2C)cc(-c2nc(-c3ccc(Cl)cc3)cs2)c1=O` (stereo not shown) [Compound 526], the pIC50 on IDH1 R132H and against IDH1 R132C was > 6.52 in each case.

Regarding `COc1ccc(CN2CCN(C)CC2)cc1-n1c2c(cc(-c3nc(-c4ccc(Cl)cc4)cs3)c1=O)C(=O)CCC2` [Compound 527], the pIC50 at IDH1 R132H and on IDH1 R132C was < 4.70 in each case.

For `CCOc1ccc(C)cc1-n1c(C=C(C)C)c(C(=O)N2CCNCC2)cc(-c2nc(-c3ccc(Cl)cc3)cs2)c1=O` [Compound 528], the pIC50 on IDH1 R132H and on IDH1 R132C was > 6.52 each time.

As for `CCc1cccc(CC)c1-n1c(C=C(C)C)c(C(=O)N2CCCNC(=O)C2)cc(-c2nc(-c3ccc(Cl)cc3)cs2)c1=O` [Compound 529], the pIC50 against IDH1 R132H and at IDH1 R132C was > 6.52 throughout.

With `CC(C)=Cc1c(C(=O)N2CCNCC2)cc(-c2nc(-c3ccc(Cl)cc3)cs2)c(=O)n1-c1cc(F)ccc1OC(C)C` [Compound 530], the pIC50 (usually −log10 of the IC50, conventionally taken in molar units) against IDH1 R132H was > 6.52; on IDH1 R132C, 6.00 to 6.52.

On to `CCc1cc(C)cc(CC)c1-n1c2c(cc(-c3nc(-c4ccc(Cl)cc4)cs3)c1=O)C(=O)CCC2` [Compound 531], for which the results for the pIC50 on IDH1 R132H and against IDH1 R132C were 4.70 to 5.30 and 5.30 to 6.00, respectively.

As for `COc1ccc(F)cc1-n1c(C=C(C)C)c(C(=O)N2CCNCC2)cc(-c2ccn(-c3ccc(C(F)(F)F)cc3)n2)c1=O` [Compound 532], the values for the negative logarithm of the IC50 (pIC50) at IDH1 R132H and against IDH1 R132C were 6.00 to 6.52 and 5.30 to 6.00, respectively.

Regarding `CCc1cccc(CC)c1-n1c(C=C(C)C)c(C(=O)N2CCNC[C@H]2C)cc(-c2nc(-c3ccc(C(F)(F)F)cc3)cs2)c1=O` [Compound 533], the pIC50 against IDH1 R132H and on IDH1 R132C was > 6.52 each time.

Regarding `CCOc1ncc(F)cc1-n1c(C=C(C)C)c(C(=O)N2CCNCC2)cc(-c2nc(-c3ccc(C(F)(F)F)nc3)cs2)c1=O` [Compound 534], the pIC50 on IDH1 R132H and on IDH1 R132C was > 6.52 in each case.

Consider `CCc1cccc(CC)c1-n1c(C)c(C(=O)N2CCNCC2)c(O)c(-c2nc(-c3ccc(Cl)cc3)cs2)c1=O` [Compound 535], for which the pIC50 against IDH1 R132H was 6.00 to 6.52; at IDH1 R132C it was 5.30 to 6.00.

For `CCc1cccc(CC)c1-n1c(C=C(C)C)c(C(=O)N2CCNCC2COC)cc(-c2nc(-c3ccc(Cl)cc3)cs2)c1=O` (stereo not shown) [Compound 536], the pIC50 on IDH1 R132H and on IDH1 R132C was > 6.52 in each case.

For `CCc1cccc(CC)c1-n1c(C=C(C)C)c(C(=O)N2CCNC(=O)CC2)cc(-c2nc(-c3ccc(Cl)cc3)cs2)c1=O` [Compound 537], the pIC50 at IDH1 R132H and against IDH1 R132C was > 6.52 in each case.

`CCc1ccc(OC)cc1-n1c(C=C(C)C)c(C(=O)N2CCNCC2)cc(-c2nc(-c3ccc(Cl)cc3)cs2)c1=O` [Compound 539]: the pIC50 against IDH1 R132H and against IDH1 R132C was > 6.52 in each case.

As to `CCc1cccc(CC)c1-n1c(CC(C)C)c(C(=O)N2CCNCC2)cc(-c2nc(-c3ccc(Cl)cc3C)c(C)s2)c1=O` [Compound 540], the pIC50 on IDH1 R132H and against IDH1 R132C was 5.30 to 6.00 in each case.

For `COc1ncc(C)cc1-n1c(C=C(C)C)c(C(=O)N2CCNCC2)cc(-c2ccn(-c3ccc(C(F)(F)F)cc3)n2)c1=O` [Compound 541], the pIC50 against IDH1 R132H is > 6.52; at IDH1 R132C, 5.30 to 6.00.

Regarding `CCCC1CN(C(=O)c2cc(-c3nc(-c4ccc(Cl)cc4)cs3)c(=O)n(-c3c(CC)cccc3CC)c2C=C(C)C)CCN1` (stereo not shown) [Compound 542], the pIC50 at IDH1 R132H and against IDH1 R132C was > 6.52 each time.

In the case of `CCc1cccc(C)c1-n1c2c(cc(-c3nc(-c4ccccc4)cs3)c1=O)C(=O)CCC2` [Compound 543], the results for the pIC50 on IDH1 R132H and on IDH1 R132C were 4.70 to 5.30 and 5.30 to 6.00, respectively.

As for `CCOc1ncc(C)cc1-n1c(C=C(C)C)c(C(=O)N2CCNCC2)cc(-c2nc(-c3ccc(Cl)cc3)cs2)c1=O` [Compound 544], the pIC50 at IDH1 R132H and against IDH1 R132C was > 6.52 in each case.

With `CCc1cccc(CC)c1-n1c(C=C(C)C)c(C(=O)N2CCNCC2)cc(-c2nc(-c3ccc(C(F)F)nc3)cs2)c1=O` [Compound 546], the pIC50 on IDH1 R132H and on IDH1 R132C was > 6.52 throughout.

For `CN1CCN(Cc2ccccc2-n2c3c(cc(-c4nc(-c5ccc(Cl)cc5)cs4)c2=O)C(=O)CC(C)(C)C3)CC1` [Compound 547], the pIC50 on IDH1 R132H and against IDH1 R132C was 4.70 to 5.30 each time.

Take `CCc1ccc(Cl)c(CC)c1-n1c2c(cc(-c3nc(-c4ccc(Cl)cc4)cs3)c1=O)C(=O)CC(C)(C)C2` [Compound 548]: the pIC50 against IDH1 R132H and against IDH1 R132C was > 6.52 throughout.

Regarding `CCc1cccc(CC)c1-n1c(C2CCCCC2)c(C(=O)N2CCNCC2)cc(-c2nc(-c3ccc(Cl)cc3)cs2)c1=O` [Compound 549], the results for the pIC50 against IDH1 R132H and against IDH1 R132C were 5.30 to 6.00 and 6.00 to 6.52, respectively.

For `CCc1cccc(CC)c1-n1c(C=C(C)C)c(C(=O)N2CCNC(CC)C2)cc(-c2nc(-c3ccc(Cl)cc3)cs2)c1=O` (stereo not shown) [Compound 550], the pIC50 at IDH1 R132H and at IDH1 R132C was > 6.52 each time.

Consider `CCc1cccc(CC)c1-n1c(CC(C)C)c(C(=O)N2CCNCC2)cc(-c2nc(-c3ccc(Cl)c(Cl)c3)c(C)s2)c1=O` [Compound 551], for which the negative-log IC50 (pIC50) against IDH1 R132H was 6.00 to 6.52; against IDH1 R132C, > 6.52.

As to `CCOc1ccc(-n2ccc(-c3cc(C(=O)N4CCNCC4)c(C=C(C)C)n(-c4c(CC)cccc4CC)c3=O)n2)cc1` [Compound 552], the pIC50 against IDH1 R132H and at IDH1 R132C was > 6.52 throughout.

`CC(C)=Cc1c(C(=O)N2CCNCC2)cc(-c2nc(-c3ccc(Cl)cc3)cs2)c(=O)n1-c1cc(Cl)ccc1OC(C)C` [Compound 553]: the negative-log IC50 (pIC50) against IDH1 R132H and at IDH1 R132C was > 6.52 each time.

With `CCc1cccc(CC)c1-n1c(CC(C)C)c(C(=O)N2CCNCC2)cc(-c2nc(/C=C/c3ccc(Cl)cc3)c(C)s2)c1=O` [Compound 555], the pIC50 at IDH1 R132H was 5.30 to 6.00; against IDH1 R132C, 6.00 to 6.52.

For the compound `COc1cccc(F)c1-n1c(C=C(C)C)c(C(=O)N2CCNCC2)cc(-c2nc(-c3ccc(Cl)cc3)cs2)c1=O` [Compound 556], the pIC50 at IDH1 R132H and against IDH1 R132C was > 6.52 each time.

As for `COc1cc(F)ccc1-n1c2c(cc(-c3nc(-c4ccc(Cl)cc4)cs3)c1=O)C(=O)CC(C)(C)C2` [Compound 557], the pIC50 against IDH1 R132H and on IDH1 R132C was 5.30 to 6.00 throughout.

Take `C#Cc1ccccc1-n1c(C=C(C)C)c(C(=O)N2CCNCC2)cc(-c2nc(-c3ccc(Cl)cc3)cs2)c1=O` [Compound 558]: the pIC50 against IDH1 R132H and against IDH1 R132C was > 6.52 in each case.

For the compound `CCc1cccc(CC)c1-n1c(C=C(C)C)c(C(=O)N2CCNCC2)cc(-c2nc(-c3ccc(C(F)F)cn3)cs2)c1=O` [Compound 559], the negative-log IC50 (pIC50) against IDH1 R132H and on IDH1 R132C was > 6.52 throughout.

As for `CCOC(=O)c1ncsc1-n1c2c(cc(-c3nc(-c4ccc(Cl)cc4)cs3)c1=O)C(=O)CC(C)(C)C2` [Compound 561], the pIC50 at IDH1 R132H and at IDH1 R132C was 5.30 to 6.00 throughout.

Take `CCOc1ncc(C)cc1-n1c(C=C(C)C)c(C(=O)N2CCNCC2)cc(-c2nc(-c3ccc(C(F)F)cc3)cs2)c1=O` [Compound 562]: the pIC50 against IDH1 R132H and against IDH1 R132C was > 6.52 in each case.

As to `Cc1ccc(CN2CCN(C)CC2)cc1-n1c2c(cc(-c3nc(-c4ccc(Cl)cc4)cs3)c1=O)C(=O)CCC2` [Compound 563], the pIC50 against IDH1 R132H and against IDH1 R132C was < 4.70 in each case.

Turning to `O=C1CCCc2c1cc(-c1nc(-c3ccc(Cl)cc3)cs1)c(=O)n2-c1cccc(CO)c1` [Compound 565], the pIC50 against IDH1 R132H and against IDH1 R132C was 4.70 to 5.30 throughout.

As for `COc1cccc(-n2c3c(cc(-c4nc(-c5ccc(Cl)cc5)cs4)c2=O)C(=O)CC(C)(C)C3)c1OC` [Compound 567], the pIC50 at IDH1 R132H and on IDH1 R132C was 5.30 to 6.00 each time.

Consider `CCOc1ncc(F)cc1-n1c(C=C(C)C)c(C(=O)N2CCNCC2)cc(-c2nc(-c3ccc(C(F)(F)F)cc3)cs2)c1=O` [Compound 568], for which the pIC50 at IDH1 R132H and against IDH1 R132C was > 6.52 in each case.

In the case of `CCc1cccc(CC)c1-n1c(C=C(C)C)c(C(=O)N2CCNCC2CC)cc(-c2nc(-c3ccc(Cl)cc3)cs2)c1=O` (stereo not shown) [Compound 569], the pIC50 against IDH1 R132H and on IDH1 R132C was > 6.52 in each case.

For `CN1CCN(Cc2cccc(-n3c4c(cc(-c5nc(-c6ccc(Cl)cc6)cs5)c3=O)C(=O)CCC4)c2)CC1` [Compound 570], the negative logarithm of the IC50 (pIC50) at IDH1 R132H and against IDH1 R132C was < 4.70 throughout.

Regarding `CCc1ccc(Cl)cc1-n1c(C=C(C)C)c(C(=O)N2CCNCC2)cc(-c2nc(-c3ccc(C(F)F)cc3)cs2)c1=O` [Compound 571], the pIC50 against IDH1 R132H and at IDH1 R132C was > 6.52 throughout.

On to `CCOc1ccccc1-n1c(C=C(C)C)c(C(=O)N2CCNCC2)cc(-c2nc(-c3ccc(Cl)cc3)cs2)c1=O` [Compound 572], for which the pIC50 against IDH1 R132H and against IDH1 R132C was > 6.52 each time.

In the case of `CCc1cccc(CC)c1-n1c(CC(C)C)c(C(=O)N2CCNCC2)cc(-c2nc(-c3ccc(Cl)cc3OC)c(C)s2)c1=O` [Compound 573], the pIC50 against IDH1 R132H and against IDH1 R132C was 6.00 to 6.52 each time.

For `CCOc1ncc(Cl)cc1-n1c(C=C(C)C)c(C(=O)N2CCNCC2)cc(-c2nc(-c3ccc(Cl)cc3)cs2)c1=O` [Compound 575], the pIC50 at IDH1 R132H and against IDH1 R132C was > 6.52 each time.

`CCc1ccc(Cl)cc1-n1c(C=C(C)C)c(C(=O)N2CCNCC2)cc(-c2nc(-c3ccc(C(F)(F)F)cc3)cs2)c1=O` [Compound 576]: the pIC50 against IDH1 R132H and against IDH1 R132C was > 6.52 each time.

For the compound `CCc1cccc(CC)c1-n1c(C=C(C)C)c(C(=O)N2CCN[C@@H](C(=O)O)C2)cc(-c2nc(-c3ccc(C(F)(F)F)cc3)cs2)c1=O` [Compound 577], the negative-log IC50 (pIC50) against IDH1 R132H and against IDH1 R132C was > 6.52 each time.

In the case of `CCOc1cccc(CC)c1-n1c(C=C(C)C)c(C(=O)N2CCNCC2)cc(-c2nc(-c3ccc(Cl)cc3)cs2)c1=O` [Compound 578], the pIC50 against IDH1 R132H and against IDH1 R132C was > 6.52 each time.

For `COc1cc(Cl)ccc1-n1c2c(cc(-c3nc(-c4ccc(Cl)cc4)cs3)c1=O)C(=O)CC(C)(C)C2` [Compound 579], the negative logarithm of the IC50 (pIC50) at IDH1 R132H and on IDH1 R132C was 4.70 to 5.30 throughout.
